Test results taken from patent US12180192B2, “Modulators of THR-β and methods of use thereof” (ALIGOS THERAPEUTICS, INC., priority 2019, dated 2024).

Assays:
[1] = target: T1, human thyroid receptor beta ligand-binding domain (LBD) (Homo sapiens, UniProt P10828); assay: TR-FRET thyroid receptor beta coactivator assay (THR biochemical assay, Assay 1); details: for EC50: THR-beta, TR-FRET coactivator assay, read-out: Activity category Assay 1 (EC50, THR-beta agonist); for Emax: Table 5, Assay 1, THRβ, read-out: Activity category Assay 1 THRβ (Emax)
T1 construct: purchased Invitrogen
T1 sequence (P10828 217-461 limits assumed): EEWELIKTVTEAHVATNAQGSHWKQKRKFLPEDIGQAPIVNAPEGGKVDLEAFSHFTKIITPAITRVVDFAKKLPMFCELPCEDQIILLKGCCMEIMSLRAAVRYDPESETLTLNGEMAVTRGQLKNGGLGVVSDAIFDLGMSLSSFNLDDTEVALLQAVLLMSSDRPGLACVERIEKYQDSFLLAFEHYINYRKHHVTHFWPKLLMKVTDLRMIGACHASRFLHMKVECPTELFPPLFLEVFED
Procedure, shortened: (§1)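 GST-tagged human TRβ or TRα LBD, 1 nM final (stated for β), with fluorescein-SRC2-2 coactivator peptide (200 nM) and Tb-anti-GST antibody (2 nM). Agonists serially diluted, 1% DMSO final. 1 h incubation at rt in the dark; TR-FRET read as rise in fluorescein and drop in terbium emission.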

[2] = target: T2, human thyroid receptor alpha ligand-binding domain (LBD) (Homo sapiens, UniProt P10827); assay: TR-FRET thyroid receptor alpha coactivator assay (THR biochemical assay, Assay 1); details: for EC50: Table 4, THR-alpha, read-out: Activity category Assay 1 (EC50, THR-alpha agonist activity); for Emax: Table 5, THRα, read-out: Activity category Assay 1 THRα (Emax)
T2 construct: purchased Invitrogen
Procedure, shortened: as §1

[3] = target: T3, THR beta (Homo sapiens, UniProt P10828); assay: HEK293T THR beta/RXR luciferase reporter assay (Assay 2); assay type: cell-based; details: for Emax: HEK-293T, Table 5, Assay 2, THRβ, read-out: Activity category Assay 2 THRβ (Emax); for EC50: THR-beta, HEK293T reporter assay, read-out: Activity category Assay 2 (EC50, THR-beta agonist)
T3 construct: expressed in transfected cells; host or cells: HEK293T (ATCC CRL-3216)
T3 sequence (P10828 1-461): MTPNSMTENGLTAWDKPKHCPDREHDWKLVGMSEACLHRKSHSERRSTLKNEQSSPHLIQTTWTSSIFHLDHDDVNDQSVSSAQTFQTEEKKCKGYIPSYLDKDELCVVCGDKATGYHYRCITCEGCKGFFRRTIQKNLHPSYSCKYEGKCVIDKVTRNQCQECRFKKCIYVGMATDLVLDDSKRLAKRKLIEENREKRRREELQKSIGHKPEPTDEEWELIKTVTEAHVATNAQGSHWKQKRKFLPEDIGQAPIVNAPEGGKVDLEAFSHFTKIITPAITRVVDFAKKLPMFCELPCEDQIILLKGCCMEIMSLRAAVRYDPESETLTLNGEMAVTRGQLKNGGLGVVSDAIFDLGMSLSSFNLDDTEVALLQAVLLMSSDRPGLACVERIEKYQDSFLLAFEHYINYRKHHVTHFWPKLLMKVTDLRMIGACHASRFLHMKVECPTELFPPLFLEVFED
T3 sequence (P19793 1-462 partner): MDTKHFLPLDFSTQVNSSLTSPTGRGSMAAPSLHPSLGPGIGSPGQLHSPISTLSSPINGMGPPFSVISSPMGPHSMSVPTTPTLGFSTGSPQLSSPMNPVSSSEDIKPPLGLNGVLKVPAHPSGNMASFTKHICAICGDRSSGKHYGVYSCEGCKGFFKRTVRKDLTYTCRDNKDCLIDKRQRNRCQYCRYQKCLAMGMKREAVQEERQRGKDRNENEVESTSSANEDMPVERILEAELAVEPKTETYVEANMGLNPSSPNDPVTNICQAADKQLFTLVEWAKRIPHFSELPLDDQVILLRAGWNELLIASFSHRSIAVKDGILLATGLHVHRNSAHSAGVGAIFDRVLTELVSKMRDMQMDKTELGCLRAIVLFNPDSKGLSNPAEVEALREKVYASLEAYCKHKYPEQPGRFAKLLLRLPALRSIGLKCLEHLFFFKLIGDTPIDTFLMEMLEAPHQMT
Description: (§2) HEK293T Reporter THRalpha/Beta/RXR Reporter Assay (Assay 2)
(§3) The purpose of this assay is to evaluate the effect of compounds on the thyroid hormone nuclear receptor pathway in HEK293T cells. To this end, HEK293T cells are transiently transfected with a luciferase reporter under the control of the thyroid response element (TRE), an RXR expression plasmid and either a THR alpha or THR beta expression plasmid. Transfected cells are stimulated with test compounds for 18-24 hours before activation of the thyroid hormone pathway is measured via a luciferase read-out.
(§4) Procedure. […] Ten five-fold dilutions of test compounds are prepared in DMSO and 30 nL are dispensed to the cells. […] Approximately 18-24 h after compound addition, 384 well plates are allowed to adjust to rt, 30 μL One-Glo (Promega catalog #E6120) is added to each well and luminescence is measured on a Perkin Elmer Enspire plate reader. Percent agonism is calculated using the following equation: 100× (sample-negative control)/(positive control-negative control).

[4] = target: T4, THR alpha (Homo sapiens, UniProt P10827); assay: HEK293T THR alpha/RXR luciferase reporter assay (Assay 2); assay type: cell-based; details: Assay 2; for Emax: HEK-293T, Table 5, THRα, read-out: Activity category Assay 2 THRα (Emax); for EC50: Table 4, THR-alpha, read-out: Activity category Assay 2 (EC50, THR-alpha agonist activity)
T4 construct: expressed in transfected cells; host or cells: HEK293T (ATCC CRL-3216)
T4 sequence (P10827 1-410 isoform P10827-2): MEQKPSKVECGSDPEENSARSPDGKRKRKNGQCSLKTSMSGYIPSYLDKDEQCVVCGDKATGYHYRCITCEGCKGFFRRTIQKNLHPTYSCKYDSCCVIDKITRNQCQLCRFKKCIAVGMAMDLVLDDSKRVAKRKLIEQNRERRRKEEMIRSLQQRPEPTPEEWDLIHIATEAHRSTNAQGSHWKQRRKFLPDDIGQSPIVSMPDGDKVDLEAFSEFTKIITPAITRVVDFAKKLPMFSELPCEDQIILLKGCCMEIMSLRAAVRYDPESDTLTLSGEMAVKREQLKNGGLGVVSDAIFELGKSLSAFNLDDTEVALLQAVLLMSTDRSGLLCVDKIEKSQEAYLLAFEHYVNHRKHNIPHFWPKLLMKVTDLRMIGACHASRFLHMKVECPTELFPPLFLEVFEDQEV
T4 sequence (P19793 1-462 partner): T3 sequence (P19793 1-462 partner)
Description: as §2, §3, §4

| Structure (SMILES) | EC50 [1] [µM] | Emax [1] [%] | EC50 [2] [µM] | Emax [2] [%] | Emax [3] [%] | EC50 [3] [µM] | Emax [4] [%] | EC50 [4] [µM] |
| --- | --- | --- | --- | --- | --- | --- | --- | --- |
| Nc1nn(-c2cc(Cl)c(Oc3cc(C4CCc5ccccc54)c(=O)[nH]n3)c(Cl)c2)c(=O)[nH]c1=O (stereo not drawn) [Compound 156, 6-amino-2-(3,5-dichloro-4-[[5-(2,3-dihydro-1H-inden-1-yl)-6-oxo-1H-pyridazin-3-yl]oxy]phenyl)-4H-1,2,4-triazine-3,5-dione] | < 0.05 | < 50 | 0.05 to 0.25 | < 50 | 50 to 75 | 0.05 to 0.25 | < 50 | 1 to 10 |
| Nc1nn(-c2cc(Cl)c(Oc3cc(C4Cc5ccccc5C4)c(=O)[nH]n3)c(Cl)c2)c(=O)[nH]c1=O [Compound 155] | 0.05 to 0.25 | < 50 | > 25 | < 50 | < 50 | 0.25 to 1 | < 50 | > 10 |
| Nc1nn(-c2cc(Cl)c(Oc3cc(C4CC(F)(F)C4)c(=O)[nH]n3)c(Cl)c2)c(=O)[nH]c1=O [Compound 106] | 0.25 to 1 | < 50 | 1 to 25 | < 50 | 50 to 75 | 1 to 10 | < 50 | 1 to 10 |
| Cc1c(-n2nc(N)c(=O)[nH]c2=O)cc(Cl)c(Oc2cc(C(C)C)c(=O)[nH]n2)c1Cl [Compound 35, 6-amino-2-[3,5-dichloro-4-[(5-isopropyl-6-oxo-1H-pyridazin-3-yl)oxy]-2-methyl-phenyl]-4H-1,2,4-triazine-3,5-dione] | 1 to 25 | 50 to 75 | 1 to 25 | 50 to 75 | 50 to 75 | 1 to 10 | < 50 | 1 to 10 |
| CC(C)c1c[nH]c2nnc(Oc3c(Cl)cc(-n4nc(N)c(=O)[nH]c4=O)cc3Cl)cc12 [Compound 53, 6-amino-2-[3,5-dichloro-4-([5-isopropyl-7H-pyrrolo[2,3-c]pyridazin-3-yl]oxy)phenyl]-4H-1,2,4-triazine-3,5-dione] | < 0.05 | 50 to 75 | 0.25 to 1 | < 50 | > 75 | 0.25 to 1 | > 75 | 1 to 10 |
| CC(C)c1cc(Oc2c(Br)cc(-n3nc(N)c(=O)[nH]c3=O)cc2Br)n[nH]c1=O [Compound 81, 6-Amino-2-(3,5-dibromo-4-((5-isopropyl-6-oxo-1,6-dihydropyridazin-3-yl)oxy)phenyl)-1,2,4-triazine-3,5(2H,4H)-dione] | < 0.05 | 50 to 75 | < 0.05 | 50 to 75 | > 75 | < 0.05 | > 75 | < 0.05 |
| N#Cc1nn(-c2cc(Cl)c(Oc3ccc4[nH]cc(Cc5ccccc5)c4c3)c(Cl)c2)c(=O)[nH]c1=O [Compound 46, 2-[4-[(3-benzyl-1H-indol-5-yl)oxy]-3,5-dichlorophenyl]-3,5-dioxo-4H-1,2,4-triazine-6-carbonitrile] | < 0.05 | < 50 | > 25 | < 50 | 50 to 75 | 1 to 10 | < 50 | > 10 |
| Cc1cc(-n2nc(N)c(=O)[nH]c2=O)cc(Cl)c1Oc1cc(C(C)C)c(=O)[nH]n1 [Compound 37, 6-Amino-2-[3-chloro-4-[(5-isopropyl-6-oxo-1H-pyridazin-3-yl)oxy]-5-methyl-phenyl]-4H-1,2,4-triazine-3,5-dione] | 0.05 to 0.25 | 50 to 75 | 0.25 to 1 | 50 to 75 | > 75 | 0.05 to 0.25 | 50 to 75 | 0.05 to 0.25 |
| Cc1ccc(-c2cc(=O)[nH]nc2Oc2c(Cl)cc(-n3nc(N)c(=O)[nH]c3=O)cc2Cl)cc1C [Compound 113] | 0.05 to 0.25 | < 50 | 0.25 to 1 | < 50 | < 50 | 0.25 to 1 | < 50 | > 10 |
